Results: the NIST ThermoML archive (doi:10.1016/j.fluid.2006.04.014)

Details: Liquid, Closed cell (Static) method

FCC(F)(F)F [1,1,1,2-tetrafluoroethane]
Details | vapor or sublimation pressure [kPa]
263.15 K | 202.6
268.15 K | 245.5
273.15 K | 294.12
283.15 K | 416.6

CCF [fluoroethane]
Details | vapor or sublimation pressure [kPa]
253.15 K | 216.2
258.15 K | 261.4
263.15 K | 311.9
265.65 K | 342.3
268.15 K | 372.2
270.65 K | 405.3
273.15 K | 438.1
275.15 K | 468.9
278.15 K | 517.1
281.15 K | 567.1
283.15 K | 602.9
285.65 K | 650.2
288.15 K | 699
290.65 K | 752.4
293.15 K | 808.2
295.65 K | 866
298.15 K | 924.2
300.65 K | 990.3
303.15 K | 1051.4
305.65 K | 1121.5
308.15 K | 1192.8
310.65 K | 1269.5
313.15 K | 1348.6
315.65 K | 1428.6
318.5 K | 1516.5
320.65 K | 1607.1
323.15 K | 1703.9
